This is an account of results in patent publication US7091346B1, “Purine derivatives and processes for their preparation” (Novartis AG, priority 1995, dated 2006).

“And” between values parts separate entries of the source, which are not always exact repeats. Equal entries are not always repeated. Structures can show the parent of a compound that is named as a salt.

The term melting point denotes the temperature, or range, at which the solid turns liquid.

The compound `COc1cccc(Nc2nc(NN)nc3c2ncn3C(C)C)c1.Cl` yielded a melting point of 250 °C.
As for `CCn1cnc2c(Nc3cccc(Cl)c3)nc(NCC(C)(C)N)nc21.Cl`, the figure is 196 °C; as for `CCn1cnc2c(Nc3cccc(C#N)c3)nc(NCCN)nc21.Cl`, 200 °C; as for `CC(C)n1cnc2c(Nc3ccc(F)cc3)nc(NCCN)nc21.Cl`, above 250 °C.
As for `CCn1cnc2c(Nc3ccc(F)cc3)nc(NCCN)nc21.Cl`, the figure is above 250 °C; as for `CC(C)n1cnc2c(Nc3cccc(Cl)c3)nc(NCCN)nc21` (as salt: ammonium) [Example 4, 2-(2-Amino-ethylamino)-6-(3-chloro-phenyl-amino)-9-isopropyl-9H-purine], 55 to 56 °C.
As for `CCn1cnc2c(Nc3cccc(Cl)c3)nc(N(CCO)CCO)nc21` [Example 2, 6-(3-chloro-phenylamino)-2-(di-[2-hydroxy-ethyl]-amino)-9-ethyl-9H-purine], the figure is 148 to 149 °C.
In turn, `CCn1cnc2c(Nc3cccc(Cl)c3)nc(NCc3ccccc3)nc21` [Example 10, 2-benzylamino-6-(3-chloro-phenyl-amino)-9-ethyl-9H-purine] had a melting point of 88 to 90 °C.
For `CCn1cnc2c(Nc3cccc(Cl)c3)nc(NCCc3ccccc3)nc21` [Example 11, 2-(2-phenyl-ethyl-amino)-6-(3-chloro-phenyl-amino)-9-ethyl-9H-purine] the value was 151 to 152 °C.
As for `CCn1cnc2c(Nc3cccc(Cl)c3)nc(NCCCOC)nc21` [Example 12, 2-(3-methoxy-propyl-amino)-6-(3-chloro-phenyl-amino)-9-ethyl-9H-purine], the figure is 93 to 94 °C.
`CCn1cnc2c(Nc3cccc(Cl)c3)nc(NCC3CCCO3)nc21` (centres unmarked) [Example 15, 2-(tetrahydrofurfuryl-amino)-6-(3-chloro-phenyl-amino)-9-ethyl-9H-purine] registered a melting point of 84 to 86 °C.
`CCn1cnc2c(Nc3cccc(Cl)c3)nc(NCCc3ccccn3)nc21` [Example 16, 2-[2-(2-pyridyl)-ethyl-amino]-6-(3-chloro-phenyl-amino)-9-ethyl-9H-purine] displayed a melting point of 152 to 153 °C.
For `CCn1cnc2c(Nc3cccc(Cl)c3)nc(N3CCC(CCN)CC3)nc21` [Example 18, 2-[4-(2-amino-ethyl)-piperidin-1-yl]-6-(3-chloro-phenyl-amino)-9-ethyl-9H-purine] the value was 182 to 184 °C.
As for `CCn1cnc2c(Nc3cccc(Cl)c3)nc(NCCc3c[nH]c4ccccc34)nc21` [Example 20, 2-[2-(3-indolyl)-ethyl-amino]-6-(3-chloro-phenyl-amino)-9-ethyl-9H-purine], the figure is 106 to 108 °C; as for `CCn1cnc2c(Nc3cccc(Cl)c3)nc(N(C)C3(O)CCCCC3)nc21` [Example 22, 6-(3-chloro-phenyl-amino)-2-([1-hydroxy-cyclohex-1-yl]-methylamino)-9-ethyl-9H-purine], 143 to 145 °C.
For `CCn1cnc2c(Nc3cccc(Cl)c3)nc(N3CCNCC3)nc21` [Example 23, 6-(3-chloro-phenylamino)-9-ethyl-2-piperazino-9H-purine] the value was 181.5 to 182.5 °C; for `CCn1cnc2c(Nc3cccc(C(F)(F)F)c3)nc(NCCCO)nc21` [Example 24, 9-Ethyl-2-(3-hydroxy-propyl-amino)-6-(3-trifluoromethyl-phenyl-amino)-9H-purine], 136 °C and 136 to 137 °C.
Regarding `CCn1cnc2c(Nc3cccc(C(=O)NCCCO)c3C)nc(NCCCO)nc21` [Example 25, 9-ethyl-2-(3-hydroxy-propyl-amino)-6-[3-[(3-hydroxy-propyl)-aminocarbonyl]-2-methyl-phenyl-amino]-9H-purine], the melting point lay within 138 to 142 °C.
For `COc1cccc(Nc2nc(NCCCO)nc3c2ncn3C(C)C)c1` [Example 27, 2-(3-hydroxy-propyl-amino)-6-(3-methoxy-phenyl-amino)-9-isopropyl-9H-purine] the value was 128 to 129 °C; for `COc1cccc(Nc2nc(NCCCO)nc3c2ncn3CCO)c1` [Example 28, 9-(2-hydroxy-ethyl)-2-(3-hydroxy-propyl-amino)-6-(3-methoxy-phenyl-amino)-9H-purine], 132 to 133 °C.
As for `COc1cc(Nc2nc(NCCCO)nc3c2ncn3C)cc(OC)c1OC` [Example 30, 2-(3-hydroxy-propyl-amino)-6-(3,4,5-trimethoxy-phenyl-amino)-9-methyl-9H-purine], the figure is 166 to 167 °C; as for `CCn1cnc2c(Nc3cccc(Cl)c3)nc(N3CCC[C@H]3CO)nc21` [Example 40, 6-(3-chloro-phenyl-amino)-9-ethyl-2-[(S)-2-hydroxymethyl-pyrrolidin-1-yl]-9H-purine], 169 °C; as for `CCn1cnc2c(Nc3cccc(Cl)c3)nc(Nc3cccc(N)c3)nc21` [Example 42, 2-[3-amino-phenylamino]-6-(3-chloro-phenyl-amino)-9-ethyl-9H-purine], 205 °C.
The compound `CCn1cnc2c(Nc3cccc(Cl)c3)nc(N3CCC[C@@H]3C(N)=O)nc21` [Example 45, 2-[(R)-(−)-2-carbamoyl-pyrrolidin-1-yl]-6-(3-chloro-phenyl-amino)-9-ethyl-9H-purine] had a melting point above 230 °C.
For `CCn1cnc2c(Nc3cccc(Cl)c3)nc(N3CCC[C@@H]3CN)nc21` [Example 46, 2-[(R)-2-Aminomethyl-pyrrolidin-1-yl]-6-(3-chloro-phenyl-amino)-9-ethyl-9H-purine] the value was 126 to 129 °C; for `CCn1cnc2c(Nc3cccc(Cl)c3)nc(NCC(C)N)nc21` (centres unmarked) [Example 47, 2-(2-amino-propyl-amino)-6-(3-chloro-phenyl-amino)-9-ethyl-9H-purine], 119 to 120 °C.
As for `CCn1cnc2c(Nc3cccc(Cl)c3)nc(N3CCCC(NC=O)C3)nc21` (centres unmarked) [Example 48, 6-(3-chloro-phenyl-amino)-9-ethyl-2-(3-formylamino-piperidin-1-yl)-9H-purine], the figure is 184.3 °C; as for `CCn1cnc2c(Nc3cccc(Cl)c3)nc(N[C@@H](C)C(N)=O)nc21` [Example 49, 2-[(S)-1-carbamoyl-ethylamino]-6-(3-chloro-phenyl-amino)-9-ethyl-9H-purine], 117 to 121 °C.
As for `CCn1cnc2c(Nc3cccc(Cl)c3)nc(N(C)C(N)=O)nc21` [Example 53, 2-[carbamoyl-methyl-amino]-6-(3-chloro-phenyl-amino)-9-ethyl-9H-purine], the figure is above 220 °C.
Regarding `CCn1cnc2c(Nc3cccc(Cl)c3)nc(N3CCC4(CC3)OCCO4)nc21` [Example 54, 6-(3-chloro-phenyl-amino)-2-(1,4-dioxa-8-azaspiro[4.5]dec-8-yl)-9-ethyl-9H-purine], the melting point fell in the range of 159 to 161 °C.
`CCn1cnc2c(Nc3cccc(Cl)c3)nc(N(CCO)C3CCCCC3)nc21` [Example 62, 6-(3-chloro-phenyl-amino)-2-[N-cyclohexyl-N-(2-hydroxy-ethyl)-amino]-9-ethyl-9H-purine] yielded a melting point of 125 to 128 °C.
As for `CCn1cnc2c(Nc3cccc(Cl)c3)nc(N3CCC[C@H]3C(N)=O)nc21` [Example 64, 2-[(S)-2-carbamoyl-pyrrolidin-1-yl]-6-(3-chloro-phenyl-amino)-9-ethyl-9H-purine], the figure is above 240 °C.
